Experimental data as given in patent US11413278B2, “Compounds and methods for promoting stress resistance” (priority 2015, dated 2022).
Read-outs that look alike come from different tables or passages of the source.

Assays:
[1] = tested on: WI-38 cells; assay: Long-term effects on cell viability (5 days, ATP; morphology, PI imaging); assay type: cell-based; conditions: 10 μM; for Luminescence signal for ATP measurement, day-1 Average / Luminescence signal for ATP measurement, day-2 Average / Luminescence signal for ATP measurement, day-3 Average / Luminescence signal for ATP measurement, day-4 Average / Luminescence signal for ATP measurement, day-5 Average: n = 6; for viability at 10 µM: Homo sapiens, WI-38, 120 h, DMSO ctrl = 100.0%, read-out: ATP luminescence by day-5 normalized; for Luminescence signal for ATP measurement, day-5 Average / viability at 10 µM: day-5; for O = Potential toxicity / Q = Potential toxicity: human, 5 days;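 as to Luminescence signal for ATP measurement, day-2 Average: compounds at 10 µM with ATP read daily over 5 days of treatment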;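 as to Luminescence signal for ATP measurement, day-3 Average: compounds at 10 µM with ATP read daily over 5 days of treatment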;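 as to Luminescence signal for ATP measurement, day-4 Average: compounds at 10 µM with ATP read daily over 5 days of treatment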;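 as to Luminescence signal for ATP measurement, day-5 Average: compounds at 10 µM with ATP read daily over 5 days of treatment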
Experimental: In addition, cell death was scored by PI-imaging on day 2 and day 5 of treatment.
Applicants introduced molecules (at 10 uM final concentration) to WI-38 fibroblasts and then assayed cell viability (through ATP measurement) everyday, during a course of 5 days of continuous treatment. […] Applicants also examined the morphology and scored cell death (propidium iodide staining) for cells treated with the above molecules. Of these 14 molecules, some appeared to cause cell toxicity. […] Despite the observed long-term toxicity, these molecules are still interesting as they may act as anti-tumor agents in vivo, should they have more pronounced cytotoxicity on highly proliferative tumor cells. When cells were incubated with these molecules for ˜24 hrs and then subject to hydrogen peroxide for 3 hrs, these molecules are all protective. […] Some of these small molecules may be toxic by themselves under certain conditions, but by inducing protective mechanisms, they may trigger “hormesis” and therefore protect cells from oxidative stress.

[2] = Summary score for characterization of 38 core set hits; conditions: for D = Triple resistant: 2-point score, multiplex resistance (cadmium, MMS, H2O2); for S = Sum of Negative scores: human; for C = H2O2- & Cd-resistant: score, resistance to both H2O2 and cadmium
Experimental: 38 “core set” small molecules are listed and are assigned a score, based on the result for each individual characterization. From our small molecule screen for H2O2-resistance, we isolated 61 top hits. […] Specifically, a 2-point score was assigned to the most well-known and prominent longevity-related phenotypes, such as multiplex resistance, activation of FOXO3 and/or NRF2, and down-regulation of mTOR. Small molecules were also analyzed for their ability to extend C. elegans' lifespan in 4 to 6 independent trials, and the lifespan score scale is from 0 to 2: 0 for no obvious effects, 1 for lifespan extension observed in 2 trials, 2 for observed in more than 2 trials. Certain molecules appeared to have DNA-damaging effects and/or potential cell-toxicity in cultured human cells, and they receive a negative point.

[3] = tested on: NRF2; assay: qPCR analysis of NRF2-regulated genes; assay type: cell-based, human; conditions: for Potential NRF2 Activation (>=2 target genes induced, by >=1.5-fold): Assay 13(p); for fold induction at 10 µM: Homo sapiens
How it was run: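 WI-38 cells treated with compound at 10 μM for 24 hrs, then processed by Cells-to-Ct for RNA isolation, RT and qPCR of NRF2-regulated genes (HMOX1, NQO1, GCLC, GSTM1). Expression normalized to B2M, PPIA and GAPDH; siRNA knockdown of FOXO3 or NRF2 (10 nM) preceded treatment in some runs.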

[4] = tested on: human dermal fibroblast (HDF) primary cells; assay: H2O2-resistance in primary human dermal fibroblasts; assay type: cell-based; conditions: for fold induction at 10 µM: Homo sapiens; for Assay 6: H2O2-resistant, at 10 uM, human dermal fibroblast (HDF) primary cells: YES/NO
[5] = tested on: WI-38 cells; assay: Propidium iodide (PI) cell-death imaging upon H2O2 stress; assay type: cell-based, human; conditions: for Assay 7: H2O2-resistant, at 10 uM, validated by propidium iodide (PI) cell-death imaging: w/H2O2, 3 hrs/4 hrs/5 hrs, YES/NO; for cytotoxicity at 10 µM: Homo sapiens, WI-38
[6] = Batch 1, day-0 luminescence = 320956 ± 24708
[7] = 24 h, Assay 12(o), at 10 uM, qPCR, read-out: Induction of NRF2-regulated genes: HMOX1 normalized fold-change
[8] = 24 h, Assay 12(o), at 10 uM, qPCR, read-out: Induction of NRF2-regulated genes: NQO1 normalized fold-change
[9] = rounded fold change, WI-38 cells, 10 μM, 24 hrs (RP11 for Gr-1D, RP29 for Gr-4D), read-out: Summary of effects on NRF2-regulated genes: HMOX1
[10] = rounded fold change, WI-38 cells, 10 μM, 24 hrs (RP29 for Gr-4D), read-out: Summary of effects on NRF2-regulated genes: GSTM1
[11] = rounded fold change, WI-38 cells, 10 μM, 24 hrs (RP29 for Gr-4D), read-out: Summary of effects on NRF2-regulated genes: NQO1
[12] = 10 μM, 24 hrs, WI-38, read-out: Expression of at least two NRF2 target genes
[13] = 10 μM, 24 hrs, WI-38 cells, qPCR, normalized to B2M, n = 4, read-out: GSTM1 expression, normalized fold change (NRF2-regulated gene)
[14] = 10 μM, 24 hrs, WI-38 cells, qPCR, normalized to B2M, n = 4, read-out: HMOX1 expression, normalized fold change (NRF2-regulated gene)
[15] = 10 μM, 24 hrs, WI-38 cells, qPCR, normalized to B2M, n = 4, read-out: NQO1 expression, normalized fold change (NRF2-regulated gene)
[16] = WI-38 cells, 10 μM, 24 hrs, n=4, qPCR normalized by B2M, read-out: GCLC Normalized fold change
[17] = WI-38 cells, 10 μM, 24 hrs, n=4, qPCR normalized by B2M, read-out: GSTM1 Normalized fold change
[18] = WI-38 cells, 10 μM, 24 hrs, n=4, qPCR normalized by B2M, read-out: HMOX1 Normalized fold change
[19] = WI-38 cells, 10 μM, 24 hrs, n=4, qPCR normalized by B2M, read-out: NQO1 Normalized fold change
[20] = Experiment 1, HDF cells, read-out: Experiment 1, HDF cells (under H2O2 stress treatment), at 10 uM (fold change)
[21] = Experiment 2, HDF cells, read-out: Experiment 2, HDF cells (under H2O2 stress treatment), at 10 uM (fold change)
[22] = H2O2 3 hrs, 10 uM, n = 6, negative control 5.44% ± 0.79%, read-out: Percentage of propidium iodide-positive dead cells (under H2O2 stress treatment), 3 hrs
[23] = H2O2 4 hrs, 10 uM, n = 6, negative control 16.81% ± 1.42%, read-out: Percentage of propidium iodide-positive dead cells (under H2O2 stress treatment), 4 hrs
[24] = pre-treatment at 10 uM, 3.5 hours of H2O2, DMSO control 27.4% ± 6.5%, */**/*** = reduced by one/two/three standard deviations, read-out: Percentage of propidium iodide-positive dead cells (under H2O2 stress treatment), at 10 uM
[25] = Batch 2, day-0 luminescence = 229312 ± 17487

Compound	Luminescence signal for ATP measurement, day-1 Average [1, 6]	Luminescence signal for ATP measurement, day-2 Average [1, 6]	Luminescence signal for ATP measurement, day-3 Average [1, 6]	O = Potential toxicity [1]	Q = Potential toxicity [1]	D = Triple resistant [2]	S = Sum of Negative scores [2]	C = H2O2- & Cd-resistant [2]	F = Potential NRF2 Activation ([3]; 2-point score)	fold induction at 10 µM [3, 16]	fold induction at 10 µM [3, 17]	fold induction at 10 µM [3, 18]	fold induction at 10 µM [3, 19]	F = Potential NRF2 Activation ([3]; summary score)	fold induction at 10 µM [4, 20]	fold induction at 10 µM [4, 21]	Assay 6: H2O2-resistant, at 10 uM, human dermal fibroblast (HDF) primary cells [4]	Assay 7: H2O2-resistant, at 10 uM, validated by propidium iodide (PI) cell-death imaging ([5]; 10 uM)	cytotoxicity at 10 µM [5, 22] [%]	cytotoxicity at 10 µM [5, 24] [%]	other results
CCc1ccc(Oc2nc3ccccn3c(=O)c2/C=C(\C#N)C(=O)NCc2ccco2)cc1 [Gr-5B]	529430	736318	867160	0	0	0	0	0	2	1.15	1.27	1.73	1.94	2	9.16	13.3	YES	YES	1.18	6.1	Luminescence signal for ATP measurement, day-4 Average [1, 6]: 1091073; Luminescence signal for ATP measurement, day-5 Average [1, 6]: 1104305; viability at 10 µM ([1]; Batch 1): 108%; Potential NRF2 Activation (>=2 target genes induced, by >=1.5-fold) [3]: YES; fold induction at 10 µM ([3]; 24 h, Assay 12(o), at 10 uM, qPCR, read-out: Induction of NRF2-regulated genes: GSTM1 normalized fold-change): 1.27; fold induction at 10 µM [3, 7]: 1.73; fold induction at 10 µM [3, 8]: 1.94; fold induction at 10 µM [3, 9]: 1.73; fold induction at 10 µM [3, 10]: 1.27; fold induction at 10 µM [3, 11]: 1.94; fold induction at 10 µM [3, 12]: > 1.5; fold induction at 10 µM [3, 13]: 1.27; fold induction at 10 µM [3, 14]: 1.73; fold induction at 10 µM [3, 15]: 1.94; cytotoxicity at 10 µM [5, 23]: 6.19%
Cc1ccc(S(=O)(=O)Nc2cccc3cccnc23)cc1 [Gr-3B]	–	–	–	0	1	0	0	0	0	1.1	1.1	1.04	1.07	0	3.1	1.59	YES	YES	4.63	2.6	Luminescence signal for ATP measurement, day-1 Average [1, 25]: 184710; Luminescence signal for ATP measurement, day-2 Average [1, 25]: 110226; Luminescence signal for ATP measurement, day-3 Average [1, 25]: 109008; Luminescence signal for ATP measurement, day-4 Average [1, 25]: 52193; Luminescence signal for ATP measurement, day-5 Average [1, 25]: 63138; viability at 10 µM ([1]; Batch 2): 11.4%
O=C(Nc1cccc(C(F)(F)F)c1)c1ccc([N+](=O)[O-])o1 [Gr-1E]	474558	698358	788420	0	0	0	0	1	0	1.55	2.11	1.06	1.11	0	1.4	31	YES	YES	1.68	18.8	Luminescence signal for ATP measurement, day-4 Average [1, 6]: 1038011; Luminescence signal for ATP measurement, day-5 Average [1, 6]: 1066135; viability at 10 µM ([1]; Batch 1): 104%; fold induction at 10 µM ([3]; 24 h, Assay 12(o), at 10 uM, qPCR, read-out: Induction of NRF2-regulated genes: GCLC normalized fold-change): 1.36; fold induction at 10 µM [3, 7]: 0.79; fold induction at 10 µM [3, 10]: 2.11; fold induction at 10 µM [3, 13]: 2.11; cytotoxicity at 10 µM [5, 23]: 2.95%; cytotoxicity at 10 µM ([5]; H2O2 5 hrs, 10 uM, n = 6, negative control 22.50% ± 1.53%, read-out: Percentage of propidium iodide-positive dead cells (under H2O2 stress treatment), 5 hrs): 3.44%
O=C(/C=C/c1cn(-c2ccccc2)nc1-c1cccnc1)c1ccccc1 [Gr-6B]	467756	641901	736245	0	0	0	0	1	2	0.797	1.22	1.88	1.52	2	3.6	57.6	YES	YES	2.62	2.1	Luminescence signal for ATP measurement, day-4 Average [1, 6]: 969598; Luminescence signal for ATP measurement, day-5 Average [1, 6]: 953988; viability at 10 µM ([1]; Batch 1): 92.9%; Potential NRF2 Activation (>=2 target genes induced, by >=1.5-fold) [3]: YES; fold induction at 10 µM [3, 7]: 1.88; fold induction at 10 µM [3, 8]: 1.52; fold induction at 10 µM [3, 9]: 1.88; fold induction at 10 µM [3, 11]: 1.52; fold induction at 10 µM [3, 12]: > 1.5; fold induction at 10 µM [3, 14]: 1.88; fold induction at 10 µM [3, 15]: 1.52
